Measurements taken from ChEMBL document CHEMBL5653631, “A Potent and Selective ULK1 Inhibitor Suppresses Autophagy and Sensitizes Cancer Cells to Nutrient Stress” (iScience, 2018).

Experiments:
[1] = target: Serine/threonine-protein kinase NIM1 (Homo sapiens) (UniProt Q8IY84); assay: Inhibition of human recombinant NIM1 at 40 nM in presence of ATP by radiometric assay relative to control
[2] = target: Tau-tubulin kinase 2 (Homo sapiens) (UniProt Q6IQ55); assay: Inhibition of human recombinant TTBK2 at 40 nM in presence of ATP by radiometric assay relative to control
[3] = target: Serine/threonine-protein kinase PAK 6 (Homo sapiens) (UniProt Q9NQU5); assay: Inhibition of human recombinant PAK6 at 40 nM related to control ULK1
[4] = target: T1, Eukaryotic translation initiation factor 2-alpha kinase 3 (Homo sapiens) (UniProt Q9NZJ5); assay: Inhibition of human recombinant PEK at 40 nM related to control ULK1
T1 sequence (whole entry): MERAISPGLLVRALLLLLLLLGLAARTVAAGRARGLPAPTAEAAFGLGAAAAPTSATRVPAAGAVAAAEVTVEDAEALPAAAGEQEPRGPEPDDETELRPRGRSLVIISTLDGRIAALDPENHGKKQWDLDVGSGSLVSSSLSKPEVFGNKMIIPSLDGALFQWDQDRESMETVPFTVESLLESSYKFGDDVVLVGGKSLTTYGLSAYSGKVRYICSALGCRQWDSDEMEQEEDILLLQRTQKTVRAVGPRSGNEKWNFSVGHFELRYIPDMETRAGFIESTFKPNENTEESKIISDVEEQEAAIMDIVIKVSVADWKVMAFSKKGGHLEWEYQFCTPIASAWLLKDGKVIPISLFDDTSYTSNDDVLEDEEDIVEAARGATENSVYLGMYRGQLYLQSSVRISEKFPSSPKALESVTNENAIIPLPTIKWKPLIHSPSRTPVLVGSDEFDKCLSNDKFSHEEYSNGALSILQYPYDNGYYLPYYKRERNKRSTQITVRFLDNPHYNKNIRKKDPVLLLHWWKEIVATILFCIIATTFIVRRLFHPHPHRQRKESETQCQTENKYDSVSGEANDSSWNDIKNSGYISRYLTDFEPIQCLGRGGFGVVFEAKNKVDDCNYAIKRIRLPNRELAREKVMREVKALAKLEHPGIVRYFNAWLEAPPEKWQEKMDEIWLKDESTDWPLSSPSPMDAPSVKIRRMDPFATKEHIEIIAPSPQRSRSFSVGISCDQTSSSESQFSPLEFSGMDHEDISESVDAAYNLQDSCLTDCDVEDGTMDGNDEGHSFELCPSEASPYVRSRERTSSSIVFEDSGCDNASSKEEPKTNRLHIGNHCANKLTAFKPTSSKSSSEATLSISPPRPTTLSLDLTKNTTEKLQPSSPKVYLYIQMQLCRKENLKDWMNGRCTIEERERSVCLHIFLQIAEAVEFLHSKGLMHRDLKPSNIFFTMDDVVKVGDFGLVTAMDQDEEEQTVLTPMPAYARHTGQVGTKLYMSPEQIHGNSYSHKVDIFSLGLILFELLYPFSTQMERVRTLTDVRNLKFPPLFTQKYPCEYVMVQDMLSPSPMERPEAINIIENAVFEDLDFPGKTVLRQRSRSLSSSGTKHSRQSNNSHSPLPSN

[5] = target: DNA-PK/Ku70/Ku85 (Homo sapiens) (UniProt P78527+P12956+P13010); assay: Inhibition of human recombinant DNAPK at 500 nM in presence of ATP by radiometric assay relative to control; format: protein-complex assay
[6] = target: Protein kinase C beta type (Homo sapiens) (UniProt P05771); assay: Inhibition of human recombinant PKCb at 500 nM in presence of ATP by radiometric assay relative to control
[7] = target: Eukaryotic translation initiation factor 2-alpha kinase 1 (Homo sapiens) (UniProt Q9BQI3); assay: Inhibition of human recombinant HRI at 15 nM in presence of ATP by radiometric assay relative to control
[8] = target: Serine/threonine-protein kinase PAK 6 (Homo sapiens) (UniProt Q9NQU5); assay: Inhibition of human recombinant PAK6 at 15 nM in presence of ATP by radiometric assay relative to control
[9] = target: Serine/threonine-protein kinase 33 (Homo sapiens) (UniProt Q9BYT3); assay: Inhibition of human recombinant STK33 at 15 nM in presence of ATP by radiometric assay relative to control
[10] = target: Serine/threonine-protein kinase 32A (Homo sapiens) (UniProt Q8WU08); assay: Inhibition of human recombinant YANK1 at 15 nM in presence of ATP by radiometric assay relative to control
[11] = target: T2, G protein-coupled receptor kinase 3 (Homo sapiens) (UniProt P35626); assay: Inhibition of human recombinant BARK2 at 15 nM related to control ULK1
T2 sequence (whole entry): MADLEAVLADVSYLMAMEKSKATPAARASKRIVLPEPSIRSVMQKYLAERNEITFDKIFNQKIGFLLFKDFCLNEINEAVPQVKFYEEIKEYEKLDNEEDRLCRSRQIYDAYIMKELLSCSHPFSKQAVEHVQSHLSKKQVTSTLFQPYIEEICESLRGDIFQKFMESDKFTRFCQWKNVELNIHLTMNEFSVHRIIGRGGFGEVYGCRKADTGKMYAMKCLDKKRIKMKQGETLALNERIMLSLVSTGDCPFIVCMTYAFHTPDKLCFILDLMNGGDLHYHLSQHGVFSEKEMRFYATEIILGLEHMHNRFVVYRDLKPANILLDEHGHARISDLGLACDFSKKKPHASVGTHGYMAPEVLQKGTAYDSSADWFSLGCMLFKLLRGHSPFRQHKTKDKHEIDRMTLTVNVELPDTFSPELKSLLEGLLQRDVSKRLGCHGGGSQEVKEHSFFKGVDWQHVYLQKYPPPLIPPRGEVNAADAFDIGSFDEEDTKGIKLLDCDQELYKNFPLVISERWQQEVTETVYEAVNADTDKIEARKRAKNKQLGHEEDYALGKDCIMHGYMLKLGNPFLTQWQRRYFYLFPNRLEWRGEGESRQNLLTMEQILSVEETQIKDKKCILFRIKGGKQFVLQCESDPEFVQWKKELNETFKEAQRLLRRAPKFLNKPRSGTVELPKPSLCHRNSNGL

Sequence of Serine/threonine-protein kinase PAK 6 (Homo sapiens) (Q9NQU5 whole entry, looked up): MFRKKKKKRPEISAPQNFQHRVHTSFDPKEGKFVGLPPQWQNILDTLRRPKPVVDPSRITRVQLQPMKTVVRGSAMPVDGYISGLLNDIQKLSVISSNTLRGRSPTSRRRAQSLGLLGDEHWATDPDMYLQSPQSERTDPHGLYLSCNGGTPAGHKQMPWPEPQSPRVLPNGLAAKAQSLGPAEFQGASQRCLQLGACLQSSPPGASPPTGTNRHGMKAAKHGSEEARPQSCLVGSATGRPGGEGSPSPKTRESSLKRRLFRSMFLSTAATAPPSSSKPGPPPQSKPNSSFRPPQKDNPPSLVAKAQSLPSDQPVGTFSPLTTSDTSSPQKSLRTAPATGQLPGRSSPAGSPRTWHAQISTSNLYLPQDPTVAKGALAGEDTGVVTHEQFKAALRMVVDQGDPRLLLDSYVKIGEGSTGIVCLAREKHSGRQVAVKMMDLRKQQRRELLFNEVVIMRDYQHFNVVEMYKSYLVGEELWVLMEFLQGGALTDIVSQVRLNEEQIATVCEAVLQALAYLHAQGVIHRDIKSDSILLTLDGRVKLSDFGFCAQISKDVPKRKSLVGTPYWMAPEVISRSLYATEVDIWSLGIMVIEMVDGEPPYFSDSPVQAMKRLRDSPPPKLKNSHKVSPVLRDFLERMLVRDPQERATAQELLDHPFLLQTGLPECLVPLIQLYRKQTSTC
Sequence of Protein kinase C beta type (Homo sapiens) (P05771 2-671 limits assumed): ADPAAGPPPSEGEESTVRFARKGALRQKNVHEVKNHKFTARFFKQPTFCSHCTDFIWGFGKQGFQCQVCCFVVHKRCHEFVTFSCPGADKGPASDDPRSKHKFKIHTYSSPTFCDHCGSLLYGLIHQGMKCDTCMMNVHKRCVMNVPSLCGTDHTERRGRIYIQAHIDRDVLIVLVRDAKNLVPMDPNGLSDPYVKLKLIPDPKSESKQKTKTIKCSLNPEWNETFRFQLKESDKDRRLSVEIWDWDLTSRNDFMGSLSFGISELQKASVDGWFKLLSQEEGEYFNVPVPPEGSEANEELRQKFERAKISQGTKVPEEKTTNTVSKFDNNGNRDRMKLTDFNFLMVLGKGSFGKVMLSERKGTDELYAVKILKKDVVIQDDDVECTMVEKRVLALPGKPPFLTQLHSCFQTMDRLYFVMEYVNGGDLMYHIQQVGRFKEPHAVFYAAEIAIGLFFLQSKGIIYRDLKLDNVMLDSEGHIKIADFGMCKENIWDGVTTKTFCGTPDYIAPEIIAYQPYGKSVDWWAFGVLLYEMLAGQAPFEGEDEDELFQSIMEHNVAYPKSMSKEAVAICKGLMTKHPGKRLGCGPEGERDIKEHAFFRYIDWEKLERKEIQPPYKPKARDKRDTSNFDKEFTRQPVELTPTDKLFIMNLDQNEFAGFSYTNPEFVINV
Sequence of Tau-tubulin kinase 2 (Homo sapiens) (Q6IQ55 whole entry): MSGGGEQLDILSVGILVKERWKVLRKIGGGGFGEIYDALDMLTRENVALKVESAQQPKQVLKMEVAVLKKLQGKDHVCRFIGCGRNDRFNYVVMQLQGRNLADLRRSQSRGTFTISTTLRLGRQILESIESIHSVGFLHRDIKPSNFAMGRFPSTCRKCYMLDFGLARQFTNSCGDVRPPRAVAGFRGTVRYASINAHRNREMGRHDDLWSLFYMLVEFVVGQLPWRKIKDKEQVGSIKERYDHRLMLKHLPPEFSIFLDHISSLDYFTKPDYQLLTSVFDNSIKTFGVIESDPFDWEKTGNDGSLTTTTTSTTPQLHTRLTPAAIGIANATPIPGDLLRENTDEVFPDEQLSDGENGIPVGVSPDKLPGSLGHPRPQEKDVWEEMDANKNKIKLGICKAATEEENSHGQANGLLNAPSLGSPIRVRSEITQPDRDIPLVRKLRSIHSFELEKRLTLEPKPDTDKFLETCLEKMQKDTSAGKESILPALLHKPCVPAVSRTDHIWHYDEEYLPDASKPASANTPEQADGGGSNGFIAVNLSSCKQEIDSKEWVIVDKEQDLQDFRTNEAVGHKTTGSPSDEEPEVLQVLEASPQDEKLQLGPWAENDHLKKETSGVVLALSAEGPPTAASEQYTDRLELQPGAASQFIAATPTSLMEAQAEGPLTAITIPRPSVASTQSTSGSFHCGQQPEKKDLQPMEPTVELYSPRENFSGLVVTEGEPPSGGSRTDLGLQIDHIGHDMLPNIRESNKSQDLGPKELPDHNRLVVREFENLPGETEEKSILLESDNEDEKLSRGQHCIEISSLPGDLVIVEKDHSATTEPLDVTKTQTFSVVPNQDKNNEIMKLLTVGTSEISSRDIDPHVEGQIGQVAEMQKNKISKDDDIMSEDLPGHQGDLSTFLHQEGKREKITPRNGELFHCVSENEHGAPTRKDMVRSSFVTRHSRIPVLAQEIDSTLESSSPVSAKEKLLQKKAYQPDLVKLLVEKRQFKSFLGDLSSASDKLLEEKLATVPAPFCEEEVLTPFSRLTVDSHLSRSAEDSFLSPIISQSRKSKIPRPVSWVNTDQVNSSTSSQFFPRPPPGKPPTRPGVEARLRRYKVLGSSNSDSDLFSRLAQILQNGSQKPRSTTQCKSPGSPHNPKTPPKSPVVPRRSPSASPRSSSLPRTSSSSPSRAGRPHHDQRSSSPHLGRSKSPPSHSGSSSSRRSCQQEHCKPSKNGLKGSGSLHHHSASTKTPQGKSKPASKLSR
Sequence of Serine/threonine-protein kinase 33 (Homo sapiens) (Q9BYT3 whole entry, looked up): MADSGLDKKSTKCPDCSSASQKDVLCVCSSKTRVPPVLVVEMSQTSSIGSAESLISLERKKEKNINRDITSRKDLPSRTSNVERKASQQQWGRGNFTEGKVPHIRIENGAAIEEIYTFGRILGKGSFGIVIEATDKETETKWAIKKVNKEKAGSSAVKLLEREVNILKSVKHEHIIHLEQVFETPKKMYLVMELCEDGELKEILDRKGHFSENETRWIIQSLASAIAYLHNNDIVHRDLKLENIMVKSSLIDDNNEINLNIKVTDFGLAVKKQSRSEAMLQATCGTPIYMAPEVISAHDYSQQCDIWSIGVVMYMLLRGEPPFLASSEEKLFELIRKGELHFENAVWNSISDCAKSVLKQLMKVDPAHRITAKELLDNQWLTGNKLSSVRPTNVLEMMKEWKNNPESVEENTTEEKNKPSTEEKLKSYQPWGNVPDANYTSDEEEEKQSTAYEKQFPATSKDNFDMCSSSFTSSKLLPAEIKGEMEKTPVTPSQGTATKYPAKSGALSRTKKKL
Sequence of Serine/threonine-protein kinase 32A (Homo sapiens) (Q8WU08 whole entry): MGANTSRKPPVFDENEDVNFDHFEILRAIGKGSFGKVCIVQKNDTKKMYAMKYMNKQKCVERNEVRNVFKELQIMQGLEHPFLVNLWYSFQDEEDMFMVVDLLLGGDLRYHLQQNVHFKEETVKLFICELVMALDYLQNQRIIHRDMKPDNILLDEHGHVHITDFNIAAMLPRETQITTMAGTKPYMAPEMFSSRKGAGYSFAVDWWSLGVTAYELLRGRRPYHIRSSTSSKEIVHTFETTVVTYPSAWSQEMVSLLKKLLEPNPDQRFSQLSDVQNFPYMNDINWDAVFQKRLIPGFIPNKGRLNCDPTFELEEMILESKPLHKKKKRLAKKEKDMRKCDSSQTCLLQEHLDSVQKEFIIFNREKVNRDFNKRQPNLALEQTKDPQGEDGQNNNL
Sequence of Serine/threonine-protein kinase NIM1 (Homo sapiens) (Q8IY84 whole entry): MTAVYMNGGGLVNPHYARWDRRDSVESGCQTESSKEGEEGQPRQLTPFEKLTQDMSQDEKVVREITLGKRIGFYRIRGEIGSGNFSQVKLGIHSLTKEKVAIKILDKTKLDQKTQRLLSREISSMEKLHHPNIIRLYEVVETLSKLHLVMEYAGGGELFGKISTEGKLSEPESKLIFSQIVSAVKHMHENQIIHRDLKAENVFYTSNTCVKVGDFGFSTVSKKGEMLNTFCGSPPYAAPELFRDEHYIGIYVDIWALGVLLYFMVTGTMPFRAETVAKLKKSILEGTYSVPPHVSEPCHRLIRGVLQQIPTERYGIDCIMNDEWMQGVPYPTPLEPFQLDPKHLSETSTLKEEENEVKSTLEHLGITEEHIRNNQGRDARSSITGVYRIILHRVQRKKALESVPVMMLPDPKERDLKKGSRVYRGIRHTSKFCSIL
Sequence of Eukaryotic translation initiation factor 2-alpha kinase 1 (Homo sapiens) (Q9BQI3 whole entry): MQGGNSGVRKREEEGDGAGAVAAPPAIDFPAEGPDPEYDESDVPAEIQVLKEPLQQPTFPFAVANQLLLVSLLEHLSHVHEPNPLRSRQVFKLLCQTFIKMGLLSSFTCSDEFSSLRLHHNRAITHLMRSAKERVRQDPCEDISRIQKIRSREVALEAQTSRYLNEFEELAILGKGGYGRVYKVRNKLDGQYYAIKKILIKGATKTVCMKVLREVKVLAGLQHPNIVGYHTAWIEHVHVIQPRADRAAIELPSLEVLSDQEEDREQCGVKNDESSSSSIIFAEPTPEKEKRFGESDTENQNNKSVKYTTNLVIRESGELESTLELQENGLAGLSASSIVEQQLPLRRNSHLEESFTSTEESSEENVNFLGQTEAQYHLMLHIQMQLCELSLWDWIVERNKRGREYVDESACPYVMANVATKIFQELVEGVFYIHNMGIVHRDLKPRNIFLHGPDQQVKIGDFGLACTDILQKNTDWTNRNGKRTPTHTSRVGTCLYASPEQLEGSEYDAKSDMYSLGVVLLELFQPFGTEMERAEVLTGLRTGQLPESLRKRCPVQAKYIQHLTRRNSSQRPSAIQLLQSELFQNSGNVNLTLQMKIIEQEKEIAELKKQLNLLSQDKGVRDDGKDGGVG

O=C(N[C@@H](C1CC1)C(F)(F)F)c1cc(-c2cnn3cc(-c4ccc(F)cc4)cnc23)cs1
inhibition [1]: 0% | inhibition [2]: 0% | fold change (FC) [3]: 0.1 | fold change (FC) [4]: 0

CNC(=O)c1ccccc1Oc1nc(Nc2cc(OC)c(OC)c(OC)c2)ncc1Br
inhibition [5]: 12% | inhibition [6]: 7%

CC(C)[C@H](NC(=O)c1cc(-c2cnn3cc(-c4ccc(OCCN5CCCCC5)cc4)cnc23)cs1)C(F)(F)F
inhibition [7]: 0% | inhibition [8]: 0% | inhibition [9]: 16% | inhibition [10]: 2% | fold change (FC) [11]: 0
